Laboratory results as given in EPA's ToxValDB 9.5 (doi:10.2903/j.efsa.2013.3461).
Values after ≈ are worked out from the molar mass of the structure shown.

Tests used:
Rattus norvegicus = details: for LD50: acute, oral, mortality
Anas platyrhynchos = details: short-term; oral; feed; mortality
Apis mellifera = details: acute, duration: 48 hours, mortality
Bibionidae = details: chronic/long-term; duration: 28 days; development
Canidae = details: oral, Dog Other, hematological
Daphnia magna = details: chronic/long-term; duration: 21 days; reproduction

| Structure (SMILES) | LD50 (Rattus norvegicus) [mg/kg] | LC50 (Anas platyrhynchos) [mg/kg-day] | LD50 (Apis mellifera; dermal) [µg/piece] | LD50 (Apis mellifera; oral, unspecified) [µg/piece] | NOEC (Bibionidae) [mg/kg] | NOAEL (Canidae; chronic, duration: 52 weeks) [mg/kg-day] | NOAEL (Canidae; subchronic, duration: 90 days) [mg/kg-day] | LC50 (Colinus virginianus; acute, oral, diet, mortality) [mg/kg-day] | LD50 (Colinus virginianus; acute, oral, mortality) [mg/kg] | NOEC (Colinus virginianus; reproduction developmental, reproduction) [mg/kg-day] | NOEC (Daphnia magna) [mg/L] | LC50 (Oncorhynchus mykiss; acute, duration: 96 hours, mortality) [µg/mL] | NOEC (Oncorhynchus mykiss; chronic/long-term, duration: 28 days, growth) [mg/L] | NOEL (Rattus norvegicus; reproduction developmental, histopathology: nonneoplastic) [mg/kg-day] | LC50 (Tagia sp.; acute, duration: 14 days, mortality) [mg/kg] | NOEC (Tagia sp.; chronic/long-term, duration: 8 weeks, reproduction) [mg/kg] |
| --- | --- | --- | --- | --- | --- | --- | --- | --- | --- | --- | --- | --- | --- | --- | --- | --- |
| Cc1cc(C)cc(C(=O)N(NC(=O)c2ccc3c(c2C)C(O)CCO3)C(C)(C)C)c1 (configuration not stated) [Chromafenozide metabolite (M 010)] | > 2000 | – | – | – | – | – | – | – | – | – | – | – | – | – | – | – |
| Cc1cc(C)cc(C(=O)N(NC(=O)c2ccc3c(c2C)CCCO3)C(C)(C)C)c1 [Chromafenozide] | > 5000 | > 2160 | > 100 | > 133 | 0.047 | 27 | 52 | > 1840 | > 2000 | 79 | 0.84 | 4.5 (≈ 11.4 µM) | 0.96 | 128 | > 1000 | 49 |
